This passage reports IC50 results from BindingDB's records for patent US20250161319 (Asclepieion Pharmaceutical, 2025).

In this test the target is Mitogen-activated protein kinase kinase kinase kinase 1 (Homo sapiens, UniProt Q92918). The test can be described thus: Tests of Compounds for Inhibiting HPK1 Kinase Activity In Vitro. The method, then: The compound dilution was transferred into 384-well plate by using a pipette, afterwards, the 384-well plate was sealed and centrifuged at 1000 g for 1 min. 2-fold concentration of HPK1 solution was prepared in the kinase buffer, and then 2.5 μL of the prepared 2-fold concentration of HPK1 solution was added into the 384 wells, centrifuged at 1000 g for 30 s, and incubated for 10 min at room temperature. A mixture of 2-fold concentration of MBP and ATP was prepare in the kinase buffer, and […] of prepared mixture of 2-fold concentration of MBP and ATP was added into the above reaction system for the reaction, centrifuged at 1000 g for 30 s, and then incubated at room temperature for 1 h, 5 μL of ADP-Glo reagent was added into the reaction system, and incubated at room temperature for 40 min. 10 μL of kinase detection reagent was added and incubated at room temperature for 40 min.
Mitogen-activated protein kinase kinase kinase kinase 1, sequence (Q92918 whole entry): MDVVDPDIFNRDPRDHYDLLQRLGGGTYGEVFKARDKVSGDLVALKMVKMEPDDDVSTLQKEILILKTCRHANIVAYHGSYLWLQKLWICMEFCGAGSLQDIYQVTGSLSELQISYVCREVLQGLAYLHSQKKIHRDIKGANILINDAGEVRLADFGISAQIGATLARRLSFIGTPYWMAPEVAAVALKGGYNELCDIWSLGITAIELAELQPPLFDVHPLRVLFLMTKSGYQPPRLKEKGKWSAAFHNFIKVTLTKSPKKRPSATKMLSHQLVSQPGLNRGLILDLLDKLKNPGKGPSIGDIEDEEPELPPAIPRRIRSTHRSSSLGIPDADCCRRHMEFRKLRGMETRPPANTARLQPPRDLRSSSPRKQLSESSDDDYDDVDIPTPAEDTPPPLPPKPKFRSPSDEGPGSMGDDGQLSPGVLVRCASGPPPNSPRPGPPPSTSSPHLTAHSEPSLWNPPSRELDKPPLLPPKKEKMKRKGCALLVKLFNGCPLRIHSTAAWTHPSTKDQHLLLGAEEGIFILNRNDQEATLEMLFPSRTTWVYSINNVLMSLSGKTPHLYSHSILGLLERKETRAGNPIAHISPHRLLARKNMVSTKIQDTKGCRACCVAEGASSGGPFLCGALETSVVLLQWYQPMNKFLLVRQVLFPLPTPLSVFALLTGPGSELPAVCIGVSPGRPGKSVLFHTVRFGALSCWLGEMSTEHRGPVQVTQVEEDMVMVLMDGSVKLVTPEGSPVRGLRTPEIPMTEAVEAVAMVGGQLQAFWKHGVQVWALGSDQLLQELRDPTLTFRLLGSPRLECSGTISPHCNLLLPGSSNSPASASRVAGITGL
As a reminder, the IC50 is the concentration needed to halve the response being measured. `CCn1cccc1-c1cc2cc(NC(=O)C3CC3F)ncc2c(N)c1F` (configuration not stated) [US20250161319, Example 2]: the IC50 is below 50 nM.

On to `Cn1cccc1-c1cc2cc(NC(=O)C3CC3F)ncc2c(F)c1C#N` (configuration not stated) [US20250161319, Example 10], for which the IC50 was above 300 nM.

With `CN1CCN(c2ccc(C(=O)Nc3cc4cc(-c5cccn5C)c(F)c(N)c4cn3)cc2)CC1` [US20250161319, Example 7], the 50% inhibitory concentration (IC50) is below 300 nM.

For `Cn1cccc1-c1cc2cc(NC(=O)c3ccc(N4CCNCC4)cc3)ncc2c(N)c1F` [US20250161319, Example 6], the IC50 was below 100 nM.

`CCn1cccc1-c1cc2cc(NC(=O)C3CCC(F)CC3)ncc2c(N)c1F` (configuration not stated) [US20250161319, Example 9] yielded an IC50 below 300 nM.

Turning to `CC(C)n1cccc1-c1cc2cc(NC(=O)C3CC3F)ncc2c(N)c1F` (configuration not stated) [US20250161319, Example 3], the IC50 is below 50 nM.

Turning to `C=Cn1cccc1-c1cc2cc(NC(=O)C3CC3F)ncc2c(N)c1F` (configuration not stated) [US20250161319, Example 4], the IC50 is below 50 nM.
